Data on two compounds can be found in patent US20060100105A1, “Agents containing carboxylic acid and the use of the same in plant cultivation” (priority 2002, published 2006).

In the experiment the test system is Winter oilseed rape (cv. Pronto). Nature of the experiment: Shoot elongation in winter oilseed rape. In kind it is in vivo. The conditions noted are these: active ingredient alone. The protocol:
The tank mixers employed in Example 1 are prepared by mixing an emulsion concentrate with a metconazole content of 90 g/l and an aqueous concentrate with mepiquat chloride content of 600 g/l using a magnetic stirrer (experiment T1).
Winter oilseed rape (cv. Pronto) was sown in autumn and approximately one month later treated as specified in Table 3. Shoot elongation and root development were assessed a few weeks later. The elongation results are compiled in Table 3.

With `CC1(C)CCC(Cc2ccc(Cl)cc2)C1(O)Cn1cncn1` (centres unmarked) [Metconazole, metconazole], the “shortening effect (in words)” value was “very pronounced”.

`C[N+]1(C)CCCCC1.[Cl-]` [mepiquat-chloride, N,N-dimethylpiperidinium chloride]: the “shortening effect (in words)” value is reported as “only results in some degree of shortening at scoring date 2”.
